Patent US8163803B2 (Fundação Oswaldo Cruz—FIOCRUZ, priority 2004, dated 2012)

Experiments:
[1] = tested on: experimental animal trachea; assay: Relaxation of trachea pre-contracted by anaphylactic stimulation (ovoalbumin); settings: pre-contracted with ovoalbumin (20 μg/ml), average±SEM, at least 3 animals; read-out: IC50, concentration necessary to relax in 50% the anaphylatic spasm of trachea
Experimental: Female and male experimental animals were used, weighing between 300 and 400 g, they came from Oswaldo Cruz Foundation's Center of Laboratory Animal Raising. The procedures involving the animals were examined and approved by Oswaldo Cruz Foundation's Committee of Animal Ethics (CEUA-FIOCRUZ, License number 00085-02). The animals were sensitized through a subcutaneous injection with a mixture of 50 μg ovoalbumin and 5 mg Al(OH)3. Fourteen to thirty days after the sensitization, the experimental animal was sacrificed in a chamber of carbonic gas to have its trachea removed. The trachea was transferred to a Petri dish containing Krebs solution (composition in mM) (NaCl-119; […] NaHCO3-25; […] The total segment was divided into fragments of about 3 to 4 rings that were sectioned at the extreme ending, the muscular part of the trachea. Each fragment had one of its ends tied to a rod while the other end was connected to an isometric transductor (U Basile, Italy) after the transference from the rod to a 10 ml glass cuvette. […] The contractions were registered with the […] of a computerized system of data capture (Letica, Spain). […] The results were shown as a percentage of relaxation in relation to the plateau of the anaphylatic pre-contraction. Concentration-response data were adjusted through non-linear regression curves with the […] of a graphics software (GraphPad Prism, USA). […] The values were expressed as an average± standard error of the mean and statistically analysed through the test of analysis variance (ANOVA), followed by the Newman-Keuls-Student test.

[2] = tested on: dorsal subcutaneous tissue of rats; assay: Anaphylactic release of histamine by fragments of dorsal subcutaneous tissue; set-up: species or system Wistar rats; settings: ovoalbumin (300 μg/ml); for IC50: 60 min pre-treatment, read-out: IC50, inhibition of histamine release caused by anaphylatic stimulus
Experimental: Female and male Wistar rats were used, weighing between 180 and 200 g, they came from Oswaldo Cruz Foundation's Center of Laboratory Animal Raising. The procedures involving the animals were examined and approved by Oswaldo Cruz Foundation's Committee of Animal Ethics (CEUA-FIOCRUZ, Port. 00085-02). The rats were sensitized with a subcutaneous injection containing a mixture of 50 μg ovalbumina plus 5 mg Al(OH)3. Fourteen days after the sensitization the animals were sacrificed in a chamber of CO2, to have their dorsal hypodermis removed which was fragmented into smaller segments of about 3 mm in a Petri dish containing PBS. The fragments were individually transferred to a dish with 48 pools containing 500 μl of Hanks with Ca^++ and Mg^++.
Five experimental groups were studied in quadruplicates:
I. Saline group, negative control, pools where the tissue was neither treated nor stimulated;
II. Ovoalbumin group, positive control, pools where the tissue was not treated but it was stimulated by ovoalbumin (300 μg/ml);
III. JM24-1 group, pools where the tissue was previously treated with JM24-1 before the stimulation with ovoalbumin (300 μg/ml);
IV. JM25-1 group, pools where the tissue was previously treated with JM25-1 before the stimulation with ovoalbumin (300 μg/ml);
V. JMF2-1 group, pools where the tissue was previously treated with JMF2-1 before the stimulation with ovoalbumin (300 μg/ml).
Treated and non-treated pools were kept at 37° C. in a metabolic incubator (atmosphere containing 95% O2 and 5% CO2) for 60 minutes before the antigenic challenge. After the addition of ovoalbumin (300 μg/ml) all the pools were incubated again in a metabolic oven for more than 60 minutes. After removal of tissue for drying and weighing, the culture medium was collected and acidified with perchloric acid 0.4 N being, after centrifugation 150×g for 10 min. stocked at −20° C. until the moment of fluorimetric quantifying of histamine, according to the previous work. The values were shown like nanograms of released histamine by mg of tissue (dry weight).

eosinophils of rats = assay: Cytosolic calcium increase in eosinophils stimulated with PAF (Fura 2-AM); assay type: cell-based, Wistar rats; settings: PAF (1 μM); for inhibition of citosolic calcium increase compared with lidocaine: 5 min pre-incubation
Experimental: Female and male Wistar rats were used, weighing between 200 and 250 g, they came from Oswaldo Cruz Foundation's Center of Laboratory Animal Raising. The procedures involving the animals were examined and approved by Oswaldo Cruz Foundation's Committee of Animal Ethics (CEUA-FIOCRUZ, Licenca no. 00085-02).
The animals were sacrificed in a chamber of CO2 and a population of cells containing 10-15% eosinophils were recovered from the peritoneal cavity after washing the same with 20 ml Hanks, as previously described. After centrifugation, the cellular sediment was resuspended and the leukocytes subtypes (mononuclear cells, eosinophils and mast cells) separated in a discontinuous gradient of Percoll (double layer) centrifugated at 400×g for 25 minutes. The eosinophils (85-95% purity) were recovered in the interface 56%-72%, washed in RPMi medium to eliminate residue of Percoll and related. The total cells isolated was obtained after the dilution of a sample in Türk liquid and couting in Neubauer chamber with the assistance of direct-light microscopy. The populational purity analysis was done by direct-light microscopy in cytocentrifugates dyed with May-Grunwald-Giemsa.
The eosinophils (1×10^7/ml) were loaded with 3 μM Fura 2-AM as described, washed in PBS enriched with 0.1% BSA, and resuspended in a final concentration of 0.5×10^6/ml PBS containing 0.25% BSA, HEPES and glucose ([…]). Alíquotas de células (1.5 ml) were dispensed in quartz cuvettes and balanced with 1 mM calcium at 37° C. for 10 minutes before being used. Fluorescence changes were measured by fluorometer Shimatzu (model RF 1501) as previously described. The calculus of free calcium was derived from the fluorescence spectrum (wave length of excitation, 340 and 380 nm; emission 510 nm) according to the method established. The values were represented as percentage of inhibition in relation to group control. […]
The values were expressed as an average± standard error of the mean and statistically analyzed through the test of variance analysis (ANOVA), followed by the Newman-Keuls-Student test.

Swiss 44 mice = assay: Convulsivant activity after intraperitoneal injection; assay type: in vivo
Experimental: Female and male Swiss 44 mice were used, weighing between 25 and 30 g, they came from Oswaldo Cruz Foundation's Center of Laboratory Animal Raising. The procedures involving the animals were examined and approved by Oswaldo Cruz Foundation's Committee of Animal Ethics (CEUA-FIOCRUZ, Act 00085-02). […] For each molecule, the necessary dose to induce a convulsive clinical Figure in 50% of the animals (DE50) was determined by linear regressive curves interpoled (GraphPad Prim, version 3.03).

[3] = intraperitoneal, 15 minutes after injection, 10 mice per dose

| Compound | IC50 [1] [µM] | inhibition of anaphylactic histamine release, result in words [2] | IC50 [2] [µM] | inhibition of citosolic calcium increase compared with lidocaine (eosinophils of rats) | convulsivant activity compared with lidocaine (Swiss 44 mice; 40-500 mg/Kg intraperitoneal) | DE50, dose to induce convulsion in 50% of the animals (Swiss 44 mice; [3]) [mg/kg] | DE50, dose to induce convulsion in 50% of the animals (Swiss 44 mice; mouse, in vivo, ip) [mg/kg] | blocking of the increase of citosolic calcium (eosinophils of rats; highest concentration (1 mM), Average±SEM, n=8) [%] | percentage of injected animals led to convulsion (Swiss 44 mice; 80 mg/Kg intraperitoneal) [%] |
| --- | --- | --- | --- | --- | --- | --- | --- | --- | --- |
| CCN(CC)CC(=O)Nc1ccc(C)cc1C [JM24-1, 2-dyethylamine-2′,4′-acetoxylidide] | 30 | concentrations comparable to that of lidocaine | 6.46 | so effective as lidocaine and JM23-1 in higher concentrations | noticeably inferior | 230 |  |  |  |
| CCN(CC)CC(=O)Nc1cccc(C)c1C [JM23-1, 2-dyethylamine-2′,3′-acetoxylidide] | 220 ± 60 | inactive |  | equipotent to lidocaine |  |  | 154 |  |  |
| CCN(CC)CC(=O)Nc1c(C)cccc1C [Lidocaine, 1-(2-(dyethylamine)N-dymethylfenyl)-acetamide, reference compound] | 1350 ± 20 |  | 4.5 |  |  | 62 |  | 47±2 | 100 |
